In ChEMBL document CHEMBL1158289, “Bioactive amides from Glycosmis species” (J Nat Prod, 1996):
In brackets after ≈: the same amount, converted by molar mass.

Columns and labels:
Spodoptera littoralis [1] = test: Toxicity in Spodoptera littoralis neonatal larvae assessed as growth inhibition after 5 days; format: organism-based
Spodoptera littoralis [2] = test: Contact toxicity in Spodoptera littoralis neonatal larvae assessed as mortality after 48 hrs; format: organism-based; conditions: in vivo
Spodoptera littoralis [3] = test: Toxicity in Spodoptera littoralis neonatal larvae assessed as survival rate after 5 days; format: organism-based; conditions: in vivo, 120 h
Cladosporium herbarum = test: Antifungal activity against Cladosporium herbarum assessed as inhibition of spore germination after 36 hrs by germtube inhibition test; format: functional; conditions: read-out: ED50 (the source's name)

CS/C=C/C(=O)N(C)CCc1ccccc1
EC50 (Spodoptera littoralis [1]): 0.47 µmol/g
LC50 (Spodoptera littoralis [2]): 0.03 umol/dm'2
LC50 (Spodoptera littoralis [3]): 4.24 µmol/g
EC50 (Cladosporium herbarum): 17.6 µg/mL (≈ 74.8 µM)

CSC(=O)N(C)/C=C/c1ccccc1 [DEHYDRONIRANIN A]
EC50 (Spodoptera littoralis [1]): 0.41 µmol/g
LC50 (Spodoptera littoralis [2]): 0.18 umol/dm'2
LC50 (Spodoptera littoralis [3]): 1.64 µmol/g
EC50 (Cladosporium herbarum): 100 µg/mL (≈ 482 µM)

CSC(=O)N(C)/C=C\c1ccccc1 [DEHYDRONIRANIN B]
EC50 (Spodoptera littoralis [1]): 0.37 µmol/g
LC50 (Spodoptera littoralis [2]): 0.02 umol/dm'2
LC50 (Spodoptera littoralis [3]): 0.96 µmol/g
EC50 (Cladosporium herbarum): 8.4 µg/mL (≈ 40.5 µM)

CS/C=C/C(=O)N(C)/C=C/c1ccccc1 [METHYLILLUKUMBIN A]
EC50 (Spodoptera littoralis [1]): 0.94 µmol/g
LC50 (Spodoptera littoralis [2]): > 6.5 umol/dm'2
LC50 (Spodoptera littoralis [3]): > 5 µmol/g
EC50 (Cladosporium herbarum): 5.5 µg/mL (≈ 23.6 µM)

CSC(=O)N(C)CCc1ccccc1 [NIRANIN]
EC50 (Spodoptera littoralis [1]): 0.25 µmol/g
LC50 (Spodoptera littoralis [2]): 0.03 umol/dm'2
LC50 (Spodoptera littoralis [3]): 0.81 µmol/g
EC50 (Cladosporium herbarum): 28 µg/mL (≈ 134 µM)

CNC(=O)/C=C/SC [PENANGIN]
EC50 (Spodoptera littoralis [1]): 0.84 µmol/g
LC50 (Spodoptera littoralis [2]): 2.84 umol/dm'2
LC50 (Spodoptera littoralis [3]): > 10 µmol/g
EC50 (Cladosporium herbarum): > 200 µg/mL

CSC(=O)N(C)C(=O)Cc1ccccc1 [RITIGALIN]
EC50 (Spodoptera littoralis [1]): 0.43 µmol/g
LC50 (Spodoptera littoralis [2]): 0.05 umol/dm'2
LC50 (Spodoptera littoralis [3]): 1.34 µmol/g
EC50 (Cladosporium herbarum): 156 µg/mL (≈ 699 µM)
